Data: ChEMBL document CHEMBL3885881, “DrugMatrix”

Organism: Rattus norvegicus
Assay: DrugMatrix - Regimen: Daily Repeat
Format: toxicity, organism-based, Sprague-Dawley
Parameters: regimen Daily Repeat, gender Male, age 6-8 weeks
Details: in vivo, po, route oral GAVAGE, vehicle 100 % WATER; for ABSOLUTE BASOPHIL / ABSOLUTE EOSINOPHIL / ABSOLUTE LYMPHOCYTE / ABSOLUTE MONOCYTE / ABSOLUTE SEGMENTED NEUTROPHIL / BASOPHIL / EOSINOPHIL / ERYTHROCYTE COUNT / HEMATOCRIT / HEMOGLOBIN / LEUKOCYTE COUNT / LYMPHOCYTE / MEAN CORPUSCULAR HEMOGLOBIN / MEAN CORPUSCULAR HEMOGLOBIN CONCENTRATION / MEAN CORPUSCULAR VOLUME / MONOCYTE / NEUTROPHIL / NUCLEATED RED BLOOD CELLS / PLATELET COUNT: tissue Blood; for ALANINE AMINOTRANSFERASE / ALBUMIN / ALKALINE PHOSPHATASE / ASPARTATE AMINOTRANSFERASE / BLOOD UREA NITROGEN / CARBON DIOXIDE / CHLORIDE / CHOLESTEROL / CREATINE PHOSPHOKINASE / CREATININE / GLUCOSE / LACTATE DEHYDROGENASE / LIPASE / PHOSPHORUS / POTASSIUM / SODIUM / TOTAL BILIRUBIN / TOTAL PROTEIN / URIC ACID: tissue Plasma
[1] = 5 mg/kg, 120 h, dose level Low, time 5 day
[2] = 500 mg/kg, 72 h, dose level High, time 3 day
[3] = 500 mg/kg, 120 h, dose level High, time 5 day

COc1cc2nc(N3CCN(C(=O)C4COc5ccccc5O4)CC3)nc(N)c2cc1OC (centres undefined) [DOXAZOSIN]
ABSOLUTE BASOPHIL [1]: 0 CELLS/uL | ABSOLUTE EOSINOPHIL [1]: 0 CELLS/uL | ABSOLUTE LYMPHOCYTE [1]: 9952.67 CELLS/uL | ABSOLUTE MONOCYTE [1]: 136 CELLS/uL | ABSOLUTE SEGMENTED NEUTROPHIL [1]: 844.67 CELLS/uL | BASOPHIL [1]: 0% | EOSINOPHIL [1]: 0% | ERYTHROCYTE COUNT [1]: 5.87 x10E6/uL | HEMATOCRIT [1]: 36.6% | HEMOGLOBIN [1]: 13.9 G/DL | LEUKOCYTE COUNT [1]: 10.93 x10E3/uL | LYMPHOCYTE [1]: 91% | MEAN CORPUSCULAR HEMOGLOBIN [1]: 23.73 pg | MEAN CORPUSCULAR HEMOGLOBIN CONCENTRATION [1]: 37.97 G/DL | MEAN CORPUSCULAR VOLUME [1]: 62.47 fL | MONOCYTE [1]: 1.33% | NEUTROPHIL [1]: 7.67% | NUCLEATED RED BLOOD CELLS [1]: 0 /100WBC | PLATELET COUNT [1]: 1169.67 x10E3/uL | ALANINE AMINOTRANSFERASE [1]: 54.67 u/L | ALBUMIN [1]: 4.07 G/DL | ALKALINE PHOSPHATASE [1]: 345.67 u/L | ASPARTATE AMINOTRANSFERASE [1]: 85.33 u/L | BLOOD UREA NITROGEN [1]: 17.67 mg/dL | CARBON DIOXIDE [1]: 33 mmol/L | CHLORIDE [1]: 101.67 MEQ/L | CHOLESTEROL [1]: 70.33 mg/dL | CREATINE PHOSPHOKINASE [1]: 283.33 u/L | CREATININE [1]: 0.19 mg/dL | GLUCOSE [1]: 123 mg/dL | LACTATE DEHYDROGENASE [1]: 105 u/L | LIPASE [1]: 11.33 u/L | PHOSPHORUS [1]: 11.23 mg/dL | POTASSIUM [1]: 6.38 MEQ/L | SODIUM [1]: 145.93 MEQ/L | TOTAL BILIRUBIN [1]: 0.17 mg/dL | TOTAL PROTEIN [1]: 6.07 G/DL | URIC ACID [1]: 1.13 mg/dL | ABSOLUTE BASOPHIL [2]: 0 CELLS/uL | ABSOLUTE EOSINOPHIL [2]: 73 CELLS/uL | ABSOLUTE LYMPHOCYTE [2]: 6631.33 CELLS/uL | ABSOLUTE MONOCYTE [2]: 53.67 CELLS/uL | ABSOLUTE SEGMENTED NEUTROPHIL [2]: 808.67 CELLS/uL | BASOPHIL [2]: 0% | EOSINOPHIL [2]: 1.33% | ERYTHROCYTE COUNT [2]: 5.62 x10E6/uL | HEMATOCRIT [2]: 34.87% | HEMOGLOBIN [2]: 13.47 G/DL | LEUKOCYTE COUNT [2]: 7.57 x10E3/uL | LYMPHOCYTE [2]: 85.33% | MEAN CORPUSCULAR HEMOGLOBIN [2]: 23.97 pg | MEAN CORPUSCULAR HEMOGLOBIN CONCENTRATION [2]: 38.63 G/DL | MEAN CORPUSCULAR VOLUME [2]: 62.07 fL | MONOCYTE [2]: 1% | NEUTROPHIL [2]: 12.33% | NUCLEATED RED BLOOD CELLS [2]: 0 /100WBC | PLATELET COUNT [2]: 1290.67 x10E3/uL | ALANINE AMINOTRANSFERASE [2]: 66 u/L | ALBUMIN [2]: 4.03 G/DL | ALKALINE PHOSPHATASE [2]: 327 u/L | ASPARTATE AMINOTRANSFERASE [2]: 79 u/L | BLOOD UREA NITROGEN [2]: 14.33 mg/dL | CARBON DIOXIDE [2]: 29.67 mmol/L | CHLORIDE [2]: 100.33 MEQ/L | CHOLESTEROL [2]: 97.33 mg/dL | CREATINE PHOSPHOKINASE [2]: 248 u/L | CREATININE [2]: 0.21 mg/dL | GLUCOSE [2]: 140.67 mg/dL | LACTATE DEHYDROGENASE [2]: 232.33 u/L | LIPASE [2]: 10.33 u/L | PHOSPHORUS [2]: 10.53 mg/dL | POTASSIUM [2]: 5.08 MEQ/L | SODIUM [2]: 143.17 MEQ/L | TOTAL BILIRUBIN [2]: 0.37 mg/dL | TOTAL PROTEIN [2]: 6.17 G/DL | URIC ACID [2]: 0.67 mg/dL | ABSOLUTE BASOPHIL [3]: 0 CELLS/uL | ABSOLUTE EOSINOPHIL [3]: 121 CELLS/uL | ABSOLUTE LYMPHOCYTE [3]: 10491.67 CELLS/uL | ABSOLUTE MONOCYTE [3]: 80.67 CELLS/uL | ABSOLUTE SEGMENTED NEUTROPHIL [3]: 940 CELLS/uL | BASOPHIL [3]: 0% | EOSINOPHIL [3]: 1% | ERYTHROCYTE COUNT [3]: 5.32 x10E6/uL | HEMATOCRIT [3]: 33.53% | HEMOGLOBIN [3]: 13.03 G/DL | LEUKOCYTE COUNT [3]: 11.63 x10E3/uL | LYMPHOCYTE [3]: 90.33% | MEAN CORPUSCULAR HEMOGLOBIN [3]: 24.5 pg | MEAN CORPUSCULAR HEMOGLOBIN CONCENTRATION [3]: 38.93 G/DL | MEAN CORPUSCULAR VOLUME [3]: 62.93 fL | MONOCYTE [3]: 0.67% | NEUTROPHIL [3]: 8% | NUCLEATED RED BLOOD CELLS [3]: 0.33 /100WBC | PLATELET COUNT [3]: 350.67 x10E3/uL | ALANINE AMINOTRANSFERASE [3]: 64 u/L | ALBUMIN [3]: 3.8 G/DL | ALKALINE PHOSPHATASE [3]: 343 u/L | ASPARTATE AMINOTRANSFERASE [3]: 99.33 u/L | BLOOD UREA NITROGEN [3]: 18.33 mg/dL | CARBON DIOXIDE [3]: 30.67 mmol/L | CHLORIDE [3]: 102 MEQ/L | CHOLESTEROL [3]: 54.67 mg/dL | CREATINE PHOSPHOKINASE [3]: 485.67 u/L | CREATININE [3]: 0.29 mg/dL | GLUCOSE [3]: 141.33 mg/dL | LACTATE DEHYDROGENASE [3]: 106.67 u/L | LIPASE [3]: 9.67 u/L | PHOSPHORUS [3]: 10.73 mg/dL | POTASSIUM [3]: 5.43 MEQ/L | SODIUM [3]: 145.97 MEQ/L | TOTAL BILIRUBIN [3]: 0.2 mg/dL | TOTAL PROTEIN [3]: 5.37 G/DL | URIC ACID [3]: 0.83 mg/dL
